Experimental data published in ChEMBL document CHEMBL1132509, “Aminoisoquinolines: design and synthesis of an orally active benzamidine isostere for the inhibition of factor XA” (Bioorg Med Chem Lett, 1999).

Key:
Coagulation factor X = Coagulation factor X (Bos taurus, UniProt P00743); experiment: In vitro evaluation of inhibitory activity against Coagulation factor X in prothrombinase complex
Prothrombin = Prothrombin (Homo sapiens, UniProt P00734); experiment: In vitro evaluation of inhibitory activity against Coagulation factor II in prothrombinase complex
[1] = pKa value was determined.; format: physicochemical
Serine protease 1 = Serine protease 1 (Homo sapiens, UniProt P07477); experiment: In vitro evaluation of inhibitory activity against trypsin
Chain of Serine protease 1 (P07477 whole entry): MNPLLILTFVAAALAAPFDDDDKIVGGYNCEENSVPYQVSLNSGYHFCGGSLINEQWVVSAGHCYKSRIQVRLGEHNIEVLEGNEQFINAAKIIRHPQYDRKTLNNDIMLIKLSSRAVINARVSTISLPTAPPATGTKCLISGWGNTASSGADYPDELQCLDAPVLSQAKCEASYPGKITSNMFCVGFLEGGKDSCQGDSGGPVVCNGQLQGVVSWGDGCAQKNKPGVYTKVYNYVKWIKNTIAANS

[2] = Ratio of inhibitory activity against activated protein C to that of factor Xa
[3] = Ratio of inhibitory activity against […] to that of factor Xa
[4] = Ratio inhibitory activity against coagulation factor IIa to that of factor Xa
[5] = Ratio of inhibitory activity against plasminogen activator to that of factor Xa
[6] = Ratio of inhibitory activity against Plasmin to that of factor Xa
[7] = Maximum concentration in plasma was reported at 2 hour; format: ADME, organism-based; details: read-out: CPmax
[8] = Maximum concentration in plasma was reported at 0.5 hour; format: ADME, organism-based; details: read-out: CPmax

Chain of Coagulation factor X (P00743 41-180 limits assumed): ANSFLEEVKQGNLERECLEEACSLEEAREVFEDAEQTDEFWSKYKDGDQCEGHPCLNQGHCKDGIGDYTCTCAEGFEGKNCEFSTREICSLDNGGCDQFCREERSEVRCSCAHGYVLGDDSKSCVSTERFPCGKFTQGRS
Chain of Coagulation factor X (P00743 234-492 limits assumed): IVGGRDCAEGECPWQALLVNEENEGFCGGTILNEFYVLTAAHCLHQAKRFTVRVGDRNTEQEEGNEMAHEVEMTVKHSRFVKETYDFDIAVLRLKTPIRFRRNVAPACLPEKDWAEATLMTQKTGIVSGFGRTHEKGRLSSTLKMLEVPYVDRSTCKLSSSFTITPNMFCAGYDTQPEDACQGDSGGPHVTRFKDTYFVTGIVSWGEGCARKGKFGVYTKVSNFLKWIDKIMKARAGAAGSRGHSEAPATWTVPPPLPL

| Ki (Coagulation factor X) [µM] | Ki (Prothrombin) [µM] | pKa [1] | Ki (Serine protease 1) [µM] | Structure (SMILES) | also measured |
| --- | --- | --- | --- | --- | --- |
| 0.08 | – | – | – | COc1ccc2ccc(S(=O)(=O)N[C@H]3CCN(Cc4cc5c(N)nccc5cc4N)C3=O)cc2c1 | – |
| 0.006 | – | – | – | COc1ccc2ccc(S(=O)(=O)N[C@H]3CCN(Cc4cc(C(=N)N)ccc4N)C3=O)cc2c1 | – |
| 1.6 | > 4 | 5.3 | > 2.9 | COc1ccc2ccc(S(=O)(=O)N(C)[C@H]3CCN(Cc4ccc5ncnc(N)c5c4)C3=O)cc2c1 | – |
| 0.89 | – | – | – | COc1ccc2ccc(S(=O)(=O)N[C@H]3CCN(Cc4cc5c(N)nccc5cc4OC)C3=O)cc2c1 | – |
| 0.37 | ~4 | 7.3 | > 2.9 | COc1ccc2ccc(S(=O)(=O)NC3CCN(Cc4ccc5ccc(N)nc5c4)C3=O)cc2c1 (stereo not drawn) | – |
| – | – | – | – | Nc1nccc2ccc(CN3CC[C@H](NS(=O)(=O)c4cc5ncccc5s4)C3=O)cc12 | Ratio [2]: > 841; Ratio [3]: > 131; Ratio [4]: > 181; Ratio [5]: > 395; Ratio [6]: > 330; Cmax [7]: 2.7 µM |
| – | – | – | – | COc1ccc2ccc(S(=O)(=O)N(C)[C@H]3CCN(Cc4csc(C(=N)N)c4)C3=O)cc2c1 | Cmax [8]: 3.1 µM |
| – | 1.35 | 7.6 | > 2.9 | COc1ccc2ccc(S(=O)(=O)N[C@H]3CCN(Cc4ccc5ccnc(N)c5c4)C3=O)cc2c1 | – |
| > 1.2 | – | – | – | COc1ccc2ccc(S(=O)(=O)N[C@H]3CCN(Cc4ccc5ccnc(Cl)c5c4)C3=O)cc2c1 | – |
| 0.25 | ~4 | – | > 2.9 | COc1ccc2ccc(S(=O)(=O)NC3CCN(Cc4cc5c(N)nccc5s4)C3=O)cc2c1 (stereo not drawn) | – |
| 1.2 | > 4 | 7.3 | > 2.9 | COc1ccc2ccc(S(=O)(=O)NC3CCN(Cc4ccc5nc(N)ccc5c4)C3=O)cc2c1 (stereo not drawn) | – |
| > 1.2 | – | – | – | COc1ccc2ccc(S(=O)(=O)N[C@H]3CCN(Cc4ccc5ccnc(O)c5c4)C3=O)cc2c1 | – |

| Structure (SMILES) | Ki (Coagulation factor X) [µM] | Ki (Prothrombin) [µM] | pKa [1] | Ki (Serine protease 1) [µM] | also measured |
| --- | --- | --- | --- | --- | --- |
| COc1ccc2ccc(S(=O)(=O)N[C@H]3CCN(Cc4cccc(C(=N)N)c4)C3=O)cc2c1 | – | – | 11.6 | 0.85 | – |
| N=C(N)c1cccc(CN2CC[C@H](NS(=O)(=O)c3cc4ncccc4s3)C2=O)c1 | 0.026 | – | – | – | Ratio [2]: 440; Ratio [3]: > 110; Ratio [4]: > 150; Ratio [5]: > 335; Ratio [6]: > 280 |
